Patent publication EP0085842A1, “Antimycosic agents” (BAYER AG, priority 1982, dated 1983)
≈ marks a conversion by molar mass, not a printed value.

Experiments:
[1] = tested on: Aspergillus fumigatus; assay: Antimycotic in-vitro activity, serial dilution test (MIC); type: cell-based; settings: Sabouraud's milieu d'epreuve, 20°C, 96 h, inoculum 5 x 10^4 Keime/ml, read-out: MHK-Werte in γ/ml Nährmedium Aspergillus fumigatus
Procedure: (§1) Versuchsbeschreibung: • Die in-vitro-Prüfungen wurden im Reihenverdünnungstest mit Keiminokula von durchschnittlich 5 x 10^4 Keimen/ml Substrat durchgeführt. Als Nährmedium dienten • a) für Dermatophyten und Schimmelpilze: Sabouraud's milieu d'epreuve • b) für Hefen: • Fleischextrakt-Traubenzucker-Bouillon.
(§2) Die Bebrütungstemperatur betrug 20°C, die Bebrütungsdauer lag bei 24 bis 96 Stunden bei Hefen und 96 Stunden bei Dermatophyten und Schimmelpilzen.

[2] = tested on: Microsporum canis; assay: as above; type: cell-based; settings: Sabouraud's milieu d'epreuve, 20°C, 96 h, inoculum 5 x 10^4 Keime/ml, read-out: MHK-Werte in γ/ml Nährmedium Microsporum canis
Procedure: as §1, §2

[3] = tested on: Torulopsis glabrata; assay: as above; type: cell-based; settings: Nakaseomyces glabratus; Fleischextrakt-Traubenzucker-Bouillon, 20°C, 24 to 96 h, inoculum 5 x 10^4 Keime/ml; read-out: MHK-Werte in γ/ml Nährmedium Torulopsis glabrata
Procedure: as §1, §2

[4] = tested on: Candida albicans; assay: as above; type: cell-based; settings: Fleischextrakt-Traubenzucker-Bouillon, 20°C, 24 to 96 h, inoculum 5 x 10^4 Keime/ml, read-out: MHK-Werte in γ/ml Nährmedium Candida albicans
Procedure: as §1, §2

[5] = tested on: Trichophyton mentagrophytes; assay: Antimycotic in-vivo activity (local) in experimental guinea pig trichophytosis; set-up: species or system Meerschweinchen; key: +++++: sehr gute Wirkung = keine Infektionszeichen am 12.-15.Tag p.i.; ++++: gute Wirkung = geringe Rötung, vereinzelt Schuppen; +++: Wirkung = Rötung, Schuppung, ohne Haarausfall; ++: schwache Wirkung = Rötung, Schuppung, Haarausfall; +: Spur Wirkung = flächiger Haarausfall, entzündliche Hautreaktion
[6] = tested on: Trichophyton mentagr.; assay: Antimycotic in-vitro activity, serial dilution test (MIC); type: cell-based, Trichophyton mentagrophytes; settings: Sabouraud's milieu d'epreuve, 20°C, 96 h, inoculum 5 x 10^4 Keime/ml, read-out: MHK-Werte in γ/ml Nährmedium Trichophyton mentagr.
Procedure: as §1, §2

[7] = tested on: Candida-Zellen; assay: Antimycotic in-vivo activity (oral) in mouse candidosis; set-up: species or system Mäuse vom Typ SPF-CF1; settings: for Wirkung: mice infected i.v. with Candida, oral 50 - 100 mg/kg one hour before and seven hours after infection, survivors on day 6 p.i.; for Wirkung compared with known compounds (A), (B), (C) and (D): mouse candidosis, oral 50 - 100 mg/kg
Procedure: Mäuse vom Typ SPF-CF1 wurden intravenös mit 1 - 2 x 10^6 logarithmisch wachsenden Candida-Zellen, die in physiologischer Kochsalzlösung suspendiert werden, infiziert. Eine Stunde vor und sieben Sunden nach der Infektion werden die Tiere mit jeweils 50 - 100 mg/kg Körpergewicht der Präparate oral behandelt.
Unbehandelte Tiere starben 3 bis 6 Tage post infektionem. Die Überlebensrate am 6. Tag post infektionem betrug bei unbehandelten Kontrolltieren etwa 5 %.
+++++ = sehr gute Wirkung = 90 % Überlebende am 6.Tag p.i. ++++ = gute Wirkung = 80 % Überlebende am 6.Tag p.i. +++ = Wirkung = 60 % Überlebende am 6.Tag p.i. ++ = schwache Wirkung = 40 % Überlebende am 6.Tag p.i. + = Spur Wirkung = unter 40 % Überlebende am 6.Tag p.i. k.W. = keine Wirkung

[8] = local treatment, trichophytosis model
[9] = local, 1 x daily from day 3 p.i., 15 %ige Lösung in Dimethylsulfoxid:Glycerin = 1:4, infection signs day 12-15 p.i.

SMILES | MIC [1] | MIC [2] | MIC [3] | MIC [4] | Wirkung [5, 8] | Wirkung [5, 9] | MIC [6] | Wirkung [7] | Wirkung compared with known compounds (A), (B), (C) and (D) [7]
CC(C)(CF)C(O)(CCc1ccc(Cl)cc1)Cn1cncn1 (centres unmarked) [Beispiel 25] | < 1 µg/mL | < 1 µg/mL | 2 µg/mL (≈ 6.14 µM) | < 1 µg/mL | Wirkung bis gute Wirkung | ++++ | < 1 µg/mL | +++ (Wirkung = 60 % Überlebende am 6.Tag p.i.) | bessere Wirkung
CC(CF)(CF)C(O)(COc1ccc(Cl)cc1Cl)Cn1cncn1 (centres unmarked) [Beispiel 14] | 4 µg/mL (≈ 10.5 µM) | < 1 µg/mL | 4 µg/mL (≈ 10.5 µM) | < 1 µg/mL | Wirkung bis gute Wirkung | ++++ | < 1 µg/mL | +++++ (sehr gute Wirkung = 90 % Überlebende am 6.Tag p.i.) | bessere Wirkung
CC(C)(CF)C(O)(CSc1ccc(Cl)cc1)Cn1cncn1 (centres unmarked) [Beispiel 10] | < 1 µg/mL | < 1 µg/mL | 16 µg/mL (≈ 46.5 µM) | 4 µg/mL (≈ 11.6 µM) | Wirkung bis gute Wirkung | ++++ | < 1 µg/mL | ++++ (gute Wirkung = 80 % Überlebende am 6.Tag p.i.) | bessere Wirkung
CC(C)(CF)C(O)(CCc1ccc(Cl)cc1Cl)Cn1cncn1 (centres unmarked) [Beispiel 26] | < 1 µg/mL | 2 µg/mL (≈ 5.55 µM) | 8 µg/mL (≈ 22.2 µM) | 4 µg/mL (≈ 11.1 µM) | Wirkung bis gute Wirkung | +++ | < 1 µg/mL | +++ (Wirkung = 60 % Überlebende am 6.Tag p.i.) | bessere Wirkung
CC(CF)(CF)C(O)(CCc1ccc(Cl)cc1Cl)Cn1cncn1 (centres unmarked) [Beispiel 27] | 2 µg/mL (≈ 5.29 µM) | 2 µg/mL (≈ 5.29 µM) | 4 µg/mL (≈ 10.6 µM) | 2 µg/mL (≈ 5.29 µM) | Wirkung bis gute Wirkung | +++ | < 1 µg/mL | +++ (Wirkung = 60 % Überlebende am 6.Tag p.i.) | bessere Wirkung
CC(C)(CF)C(O)(COc1ccc(Cl)cc1)Cn1cncn1 (centres unmarked) [Beispiel 7] | < 1 µg/mL | 2 µg/mL (≈ 6.1 µM) | < 1 µg/mL | < 1 µg/mL | Wirkung bis gute Wirkung | +++ | < 1 µg/mL | +++++ (sehr gute Wirkung = 90 % Überlebende am 6.Tag p.i.) | bessere Wirkung
CC(CF)(CF)C(O)(COc1ccc(Cl)cc1)Cn1cncn1 (centres unmarked) [Beispiel 13] | 4 µg/mL (≈ 11.6 µM) | 2 µg/mL (≈ 5.78 µM) | 8 µg/mL (≈ 23.1 µM) | < 1 µg/mL | Wirkung bis gute Wirkung | +++ | < 1 µg/mL | +++++ (sehr gute Wirkung = 90 % Überlebende am 6.Tag p.i.) | bessere Wirkung
C=CC(C)(C)C(O)(COc1ccc(-c2ccccc2)cc1)Cn1ccnc1 (centres unmarked) [Beispiel 5, 4-(4-Biphenylyloxymethyl)-3,3-dimethyl-4-hydroxy-5-(imidazol-1-yl)-1-penten] | < 1 µg/mL | < 1 µg/mL | < 1 µg/mL | < 1 µg/mL | Wirkung bis gute Wirkung | +++ | < 1 µg/mL | ++++ (gute Wirkung = 80 % Überlebende am 6.Tag p.i.) | bessere Wirkung
C=CC(C)(C)C(O)(COc1ccc(Cl)cc1)Cn1cncn1 (centres unmarked) [Beispiel 22] | < 1 µg/mL | 4 µg/mL (≈ 12.4 µM) | 16 µg/mL (≈ 49.7 µM) | 2 µg/mL (≈ 6.21 µM) | – | ++ | < 1 µg/mL | +++++ (sehr gute Wirkung = 90 % Überlebende am 6.Tag p.i.) | bessere Wirkung
CC(CF)(CF)C(O)(COc1ccc(Cl)cc1Cl)Cn1ccnc1 (centres unmarked) [Beispiel 32] | 32 µg/mL (≈ 84.4 µM) | 16 µg/mL (≈ 42.2 µM) | 8 µg/mL (≈ 21.1 µM) | 2 µg/mL (≈ 5.27 µM) | Wirkung bis gute Wirkung | +++ | 2 µg/mL (≈ 5.27 µM) | ++++ (gute Wirkung = 80 % Überlebende am 6.Tag p.i.) | bessere Wirkung
Cc1cc(Cl)ccc1OCC(O)(Cn1cncn1)C(C)(C)CF (centres unmarked) [Beispiel 8] | 4 µg/mL (≈ 11.7 µM) | < 1 µg/mL | 2 µg/mL (≈ 5.85 µM) | < 1 µg/mL | Wirkung bis gute Wirkung | +++ | < 1 µg/mL | +++ (Wirkung = 60 % Überlebende am 6.Tag p.i.) | bessere Wirkung
Cc1cc(Cl)ccc1OCC(O)(Cn1cncn1)C(C)(CF)CF (centres unmarked) [Beispiel 15] | 8 µg/mL (≈ 22.2 µM) | < 1 µg/mL | 4 µg/mL (≈ 11.1 µM) | < 1 µg/mL | Wirkung bis gute Wirkung | ++++ | < 1 µg/mL | ++++ (gute Wirkung = 80 % Überlebende am 6.Tag p.i.) | bessere Wirkung
CC(CF)(CF)C(O)(CCc1ccc(Cl)cc1)Cn1cncn1 (centres unmarked) [Beispiel 28] | < 1 µg/mL | 2 µg/mL (≈ 5.82 µM) | 2 µg/mL (≈ 5.82 µM) | 2 µg/mL (≈ 5.82 µM) | Wirkung bis gute Wirkung | ++++ | < 1 µg/mL | ++++ (gute Wirkung = 80 % Überlebende am 6.Tag p.i.) | bessere Wirkung
CC(C)(CF)C(O)(COc1ccc(Cl)cc1Cl)Cn1cncn1 (centres unmarked) [Beispiel 9] | 8 µg/mL (≈ 22.1 µM) | 2 µg/mL (≈ 5.52 µM) | 4 µg/mL (≈ 11 µM) | 4 µg/mL (≈ 11 µM) | Wirkung bis gute Wirkung | ++++ | < 1 µg/mL | +++ (Wirkung = 60 % Überlebende am 6.Tag p.i.) | bessere Wirkung
